How the values were obtained:
[1] = target: T1, human Hsp90α N-terminal domain (Homo sapiens, UniProt P07900); assay: Isothermal titration calorimetry (ITC) binding to human Hsp90; conditions: 25 mM Tris, 100 mM NaCl, 1 mM MgCl2, 1 mM TCEP, 5% DMSO, pH 7.4
T1 construct: Cloning, expression, and purification of the Human Hsp90a N-terminal domain were performed according to published methods; made in house
Experimental: The ability of the compounds of the invention to bind to human Hsp90 proteins was determined using isothermal titration calorimetry.
Isothermal titration calorimetry (ITC) experiments were performed with a VP-ITC titration calorimeter (Microcal Inc., Northampton, Mass., USA). […] All solutions were filtered and degassed prior to a titration being carried out. The enthalpy change resulting from each injection of ligand was obtained through integration of the calorimetric signal. Data were analysed using Origin 7.0 (Microcal Software Inc., Northampton, Mass.). Heats of dilution were estimated using the final injections of each individual titration and subtracted before data fitting. Different ITC experimental formats were employed in order to obtain compound dissociation constants (Kd's) over a wide range of affinities. […] In this type of experiment the stoichiometry parameter (N) was locked at 1 for data fitting.

[2] = Solid-state stability of crystalline L-lactate salt forms (storage in air / 40° C. and 75% RH, XRPD); type: physicochemical; conditions: solid L-lactate 1:1 salt of Compound (VIII); in air, or at 40° C. and 75% RH
Text: Samples for X-ray powder diffraction (XRPD) data collection were gently ground by marble mortar and loaded into a crystallographic capillary (from Hampton Research, Quartz or Glass Type 10, 0.4 or 0.7 mm diameter). Diffraction patterns were collected at room temperature using CuKα radiation (λ=1.5418 Å) from a Rigaku rotating anode RU3HR, Osmic blue confocal optics, ¼ c goniometer and a Rigaku HTC image plate detector. 2D images were collected while spinning φ axis with a detector to crystal distance of 250 mm. Data collection was controlled by CrystalClear software and 2D images were converted to 1D plot (2θ vs. Intensity) by Datasqueeze (intensity averaged over the azimuthal angle 0≦χ≦360° for 2θ range 3-30° in 0.02° steps). In house program AstexXRPD was used for manipulation and visualisation of 1D XRPD patterns.

Kd [1] [nM]	stability of crystalline form [2]	Compound
< 100	–	CC(C)c1cc(C(=O)N2Cc3ccc(CN4CCN(C)CC4)cc3C2)c(O)cc1O [Example 55, (2,4-dihydroxy-5-isopropyl-phenyl)-[5-(4-methyl-piperazin-1-ylmethyl)-1,3-dihydro-isoindol-2-yl]-methanone]
–	transforms in air into form FL1	CC(C)c1cc(C(=O)N2Cc3ccc(CN4CCN(C)CC4)cc3C2)c(O)cc1O.C[C@H](O)C(=O)O [Form FL3, (2,4-dihydroxy-5-isopropyl-phenyl)-[5-(4-methyl-piperazin-1-ylmethyl)-1,3-dihydro-isoindol-2-yl]-methanone L-lactate salt]
–	stable in air	CC(C)c1cc(C(=O)N2Cc3ccc(CN4CCN(C)CC4)cc3C2)c(O)cc1O.C[C@H](O)C(=O)O [form FL2, (2,4-dihydroxy-5-isopropyl-phenyl)-[5-(4-methyl-piperazin-1-ylmethyl)-1,3-dihydro-isoindol-2-yl]-methanone L-lactate salt]

Compound	Kd [1] [nM]	stability of crystalline form [2]
CC(C)c1cc(C(=O)N2Cc3ccc(CN4CCN(C)CC4)cc3C2)c(O)cc1O.C[C@H](O)C(=O)O [Form FL1, (2,4-dihydroxy-5-isopropyl-phenyl)-[5-(4-methyl-piperazin-1-ylmethyl)-1,3-dihydro-isoindol-2-yl]-methanone L-lactate salt]	–	stable in air and at 40 °C and 75% RH for at least one month
